Data taken from US9283234B2, “Compositions and methods for suppressing endometrial proliferation” (REPROS THERAPEUTICS INC., priority 2006, dated 2016).

What was measured:
[1] = test system: rabbit progesterone receptor (rbPR) and glucocorticoid receptor (rbGR); test: Receptor-binding assays, ratio of relative binding affinities rbPR/rbGR; conditions: ratio of relative binding affinities (RBA = EC50 of standard/EC50 of test compound x100) for rbPR and rbGR; standards progesterone, dexamethasone
Method: Certain antiprogestins were tested in receptor-binding assays for their ability to bind rabbit progesterone receptor (rbPR) and glucocorticoid receptor (rbGR). Briefly, cytosol containing PR or GR were prepared in TEGMD buffer (10 mM Tris, pH 7.2, 1.5 mM EDTA, 0.2 mM sodium molybdate, 10% glycerol, 1 mM DTT) from uterus or thymus, respectively, of estradiol-primed immature rabbits. For PR binding, the cytosol was incubated with 6 nM 1,2-[^3H]progesterone (50.0 Ci/mmole) and competitors were added at concentrations from 2 to 100 nM. For binding to GR, the cytosol was incubated with 6 nM 6,7-[^3H]-dexamethasone (40 Ci/mmol) and test compounds were added at concentrations from 20 to 100 nM. After overnight incubation at 4 C, bound and unbound [^3H] steroids were separated by addition of dextran-coated charcoal and centrifugation at 2100×g for 15 min at 4 C. Supernatants containing the [^3H]-steroid receptor complexes were decanted into vials containing 4 ml OPTIFLUOR scintillation fluid (Packard Instrument Co.), vortexed, equilibrated in a liquid scintillation counter for 30 minutes and then counted for 2 minutes. The EC50 (Effective Concentration) for each standard curve and each of the compound curves was determined by entering the counting data into a four parameter sigmoidal computer program ([…] Immunoassay Data Reduction Program, Packard Instrument Co., Meriden, Conn.). Relative binding affinity (RBA) for each compound was calculated using the following equation: EC50 of standard/EC50 of test compound×100. The standards for the PR and GR assays were unlabeled progesterone and dexamethasone, respectively. The results of these experiments are summarized in Table 1, as a ratio of the relative binding affinities of each compound for the rbPR and rbGR receptors (rbPR/rbGR).

rabbit uterus = test: anti-McGinty and anti-Clauberg assays; type: in vivo; conditions: average of anti-McGinty and anti-Clauberg results relative to CDB-2914 (=1.00)
Description: Also given in Table 1 are the relative biological activities of the same compounds in the rabbit uterus by the anti-McGinty and anti-Clauberg assays. Compound CDB-2914 (listed at the end of the Table) was used as the control or reference compound (rabbit Biological Activity=1.00) for these experiments because results of experiments using CDB-2914 have been published before (Hild-Petito et al., 1996; Passaro et al., 1997; Reel et al., 1998; Larner et al., 2000). For the anti-McGinty test, immature female rabbits received a subcutaneous injection of 5 μg estradiol in 10% ethanol/sesame oil daily for 6 consecutive days. On day 7, animals underwent sterile abdominal surgery to ligate a 3-4 cm segment of both uterine horns. The test compound in appropriate solvent was injected intraluminally into the ligated segment of one uterine horn and vehicle alone into the other. A stimulating dose of progesterone (267 μg/day) was administered subcutaneously to each rabbit daily for the next three days to induce endometrial proliferation. All animals were sacrificed at day 10 for removal of the uterus where a segment central to the ligatures was removed and fixed in 10% neutral buffered formalin and submitted for histological processing. Five micron sections stained with hematoxylin and cosin were evaluated microscopically for the degree of endometrial glandular proliferation. The percent inhibition of endometrial proliferation for each rabbit was calculated and the mean of the group of five animals recorded. For the Anti-Clauberg test, immature female rabbits received a subcutaneous injection of 5 μg estradiol in 10% ethanol/sesame oil daily for 6 consecutive days. On day 7, animals received progesterone by subcutaneous injection (160 μg/day) and the experimental compound in appropriate vehicle orally or subcutaneously for five consecutive days. One group of rabbits received progesterone only. […] Five micron sections stained with hematoxylin and eosin were evaluated microscopically for the degree of endometrial glandular proliferation. […]

[2] = molecular target: T1, glucocorticoid receptor (rbGR) (Oryctolagus cuniculus, UniProt P59667); test: glucocorticoid receptor binding; design: species or system rabbit
T1 construct: cytosol containing PR or GR were prepared in TEGMD buffer; from tissue; host or cells: thymus of estradiol-primed immature rabbits (cytosol)
T1 sequence (P59667 1-772): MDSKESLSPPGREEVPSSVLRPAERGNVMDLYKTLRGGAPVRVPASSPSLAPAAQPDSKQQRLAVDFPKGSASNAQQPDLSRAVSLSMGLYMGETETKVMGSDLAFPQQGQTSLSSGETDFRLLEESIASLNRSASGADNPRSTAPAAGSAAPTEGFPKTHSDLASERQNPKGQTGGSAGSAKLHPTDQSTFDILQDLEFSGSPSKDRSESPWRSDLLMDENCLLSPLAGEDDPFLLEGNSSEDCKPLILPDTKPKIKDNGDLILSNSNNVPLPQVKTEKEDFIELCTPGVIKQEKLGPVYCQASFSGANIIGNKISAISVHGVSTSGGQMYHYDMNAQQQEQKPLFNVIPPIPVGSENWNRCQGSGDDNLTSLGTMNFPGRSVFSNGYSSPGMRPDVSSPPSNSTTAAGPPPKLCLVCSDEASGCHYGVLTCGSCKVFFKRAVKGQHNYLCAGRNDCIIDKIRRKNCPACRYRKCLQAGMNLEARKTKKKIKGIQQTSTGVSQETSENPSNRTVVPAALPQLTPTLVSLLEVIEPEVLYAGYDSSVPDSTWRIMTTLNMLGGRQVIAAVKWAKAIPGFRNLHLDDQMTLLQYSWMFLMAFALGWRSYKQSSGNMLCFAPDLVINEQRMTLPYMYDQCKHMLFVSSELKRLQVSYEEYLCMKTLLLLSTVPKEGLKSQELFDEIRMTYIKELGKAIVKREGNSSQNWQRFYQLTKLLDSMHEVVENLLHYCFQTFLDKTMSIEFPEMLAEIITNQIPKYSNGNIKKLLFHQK
Method: Certain antiprogestins were tested in receptor-binding assays for their ability to bind rabbit progesterone receptor (rbPR) and glucocorticoid receptor (rbGR). […] For PR binding, the cytosol was incubated with 6 nM 1,2-[^3H]progesterone (50.0 Ci/mmole) and competitors were added at concentrations from 2 to 100 nM. For binding to GR, the cytosol was incubated with 6 nM 6,7-[^3H]-dexamethasone (40 Ci/mmol) and test compounds were added at concentrations from 20 to 100 nM. After overnight incubation at 4 C, bound and unbound [^3H] steroids were separated by addition of dextran-coated charcoal and centrifugation at 2100×g for 15 min at 4 C. Supernatants containing the [^3H]-steroid receptor complexes were decanted into vials containing 4 ml OPTIFLUOR scintillation fluid (Packard Instrument Co.), vortexed, equilibrated in a liquid scintillation counter for 30 minutes and then counted for 2 minutes. […] The standards for the PR and GR assays were unlabeled progesterone and dexamethasone, respectively.

endometrium = test: Six month endometriosis study: endometrial thickness (ultrasound) / endometrial proliferation; type: in vivo, pre-menopausal adult women; conditions: LUPRON once per month
Description: Comparisons were made to both baseline and visit one ultrasound measurements of endometrial thickness. […]

[3] = test system: pain associated with endometriosis; test: Six month endometriosis study: pain diaries and symptom surveys; type: in vivo, pre-menopausal adult women; design: key to score for intensity of pain on a bad day: 0-10 scale; 0 = no pain, 10 = extreme pain
Method: Pain reduction also occurred more rapidly than with the active control, LUCRIN. The response of pain to treatment in this study was analyzed in two ways. Patients in the study maintained daily pain diaries to record the severity and frequency of pain. In addition, at each office visit, patients filled out endometriosis symptom surveys that included a questionnaire that evaluated intensity of pain on a bad day on a scale of 0-10 with 10 being the greatest intensity. […] There appeared to be a dose dependent effect on pain reduction. […] This decrease in duration of pain was statistically better (p=0.0012) than the 117.8 (74%; standard deviation 51.4 days) pain free days achieved with LUCRIN. […] Patients on CDB-4124 12.5 mg and 25 mg doses had 115.9 (66%; standard deviation 69.2 days) and 133.6 (75%; standard deviation 27.4 days) pain free days, respectively. […] The 25 mg and 12.5 mg doses of CDB-4124 were not statistically different from LUCRIN. […] The intensity of pain was asked by the question: “On a scale of 1-10, with 0 being no pain and 10 being extreme pain, how intense was your pain on a bad day?” The mean scores for intensity of pain at baseline were 6.3 for the CDB-4124 groups and 6.1 for the LUCRIN group. […] At month three all four active treatment groups had statistically significant reduction in pain compared with baseline, with the following scores: 3.7 (p=0.03) for 12.5 mg CDB-4124, 3.2 (p=0.03) for 25 mg CDB-4124, 1.6 (p=0.015) for 50 mg CDB-4124 and 1.5 (p=0.016) for LUCRIN. These dose related reductions continued until month six when the values for pain intensity were 2.0 (p=0.008), 2.8 (p=0.023), 0.6 (p=0.004) and 0.7 (p=0.016), respectively. Two months after stopping treatment pain returned and was of similar intensity in all four treatment groups.

[4] = Measuring serum corticosterone in rats; conditions: progesterone, CDB-4124 and RU-486 groups compared
[5] = estrogenic, androgenic, anti-estrogenic and anti-androgenic activities
Description: These methods include receptor binding and in vivo bioassays such as anti-McGinty, anti-Clauberg, glucocorticoid, estrogenic, androgenic, anti-glucocorticoid (AG), anti-estrogen, and anti-androgen activities as well as post-coital and anti-ovulatory activities where in the leading compounds of the instant invention are used as a reference.

[6] = Measuring serum cortisol in rats; type: in vivo; conditions: 10 mg/kg, 21 days of chronic dosing, FIG. 1

**Q.** With `CCOCC(=O)[C@@]1(OC(C)=O)CCC2C3CCC4=CC(=NO)CCC4=C3C(c3ccc(N(C)C)cc3)C[C@@]21C` (stereo partly drawn) [CDB-4226, 3-hydroxyamino-21-ethyloxy-17α-acetoxy-11β-(4 N,N-dimethylaminophenyl)-19-norpregna-4,9-diene-3,20-dione] as the compound, how does the rbPR/rbGR [1] read?
**A.** The rbPR/rbGR was 1.51.

**Q.** And the “rabbit Biol. Act.” value (rabbit uterus)?
**A.** Its value is 0.54.

**Q.** For `CC(=O)O[C@]1(C(C)=O)CC[C@H]2[C@@H]3CCC4=CC(=O)CCC4=C3[C@@H](c3ccc(N(C)C)cc3)C[C@@]21C` [CDB-2914, 17α-acetoxy-11β-(4-N,N-dimethylaminophenyl)-19-norpregna-4,9-dien-3,20-dione], which “anti-glucocorticoid receptor activity / glucocorticoid receptor binding” value [2] is on record?
**A.** The value was “moderately active in glucocorticoid receptor binding”.

**Q.** Which rbPR/rbGR [1] does the source give for `COCC(=O)[C@@]1(OC(C)=O)CCC2C3CCC4=CC(=NO)CCC4=C3C(c3ccc(N(C)C)cc3)C[C@@]21C` (stereo partly drawn) [CDB-4205, 3-hydroxyamino-2′-methoxy-17α-acetoxy-11β-(4 N,N-dimethylaminophenyl)-19-norpregna-4,9-diene-3,20-dione] here?
**A.** Its rbPR/rbGR is 1.99.

**Q.** And the “rabbit Biol. Act.” value (rabbit uterus)?
**A.** The value was 1.00.

**Q.** Which “Endometrium (mm) 1st dose” value (endometrium; 1st dose) does the source give for `CCNC(=O)[C@@H]1CCCN1C(=O)[C@H](CCCNC(=N)N)NC(=O)[C@H](CC(C)C)NC(=O)[C@@H](CC(C)C)NC(=O)[C@H](Cc1ccc(O)cc1)NC(=O)[C@H](CO)NC(=O)[C@H](Cc1c[nH]c2ccccc12)NC(=O)[C@H](Cc1c[nH]cn1)NC(=O)[C@@H]1CCC(=O)N1` [LUPRON, leuprolide acetate, reference compound] here?
**A.** The value was 7.5 mm.

**Q.** And the “Endometrium (mm) 3 months” value (endometrium; 3 months)?
**A.** Its value is 2.75 mm.

**Q.** And the “Endometrium (mm) screening” value (endometrium; screening)?
**A.** Its value is 7.9 mm.

**Q.** And the “percent pain free days over the 180 day treatment period” value ([3]; LUCRIN once per month)?
**A.** The value was 74%.

**Q.** And the “distress related to pain over the six month exposure” value ([3]; all doses, on average)?
**A.** Its value is “reduced distress related to pain”.

**Q.** And the “mean score for intensity of pain on a bad day” value ([3]; baseline, scale 0-10)?
**A.** The value was 6.1.

**Q.** And the “score for intensity of pain on a bad day” value ([3]; month six, LUCRIN once per month)?
**A.** The value was 0.7.

**Q.** And the “score for intensity of pain on a bad day” value ([3]; month three, LUCRIN once per month)?
**A.** Its value is 1.5.

**Q.** With `CC(=O)[C@H]1CC[C@H]2[C@@H]3CCC4=CC(=O)CC[C@]4(C)[C@H]3CC[C@]12C` [progesterone, reference compound] as the compound, how does the “differences in serum corticosterone between treatment groups” value [4] read?
**A.** Its value is “No differences in serum corticosterone”.

**Q.** Which results are given for `CC(=O)OCC(=O)[C@@]1(OC(C)=O)CCC2C3CCC4=CC(=O)CCC4=C3C(c3ccc(N(C)C)cc3)C[C@@]21C` (stereo partly drawn) [CDB-4059, 21-acetoxy-17α-acetoxy-1,3-(4 N,N-dimethylaminophenyl)-19-norpregna-4,9-diene-3,20-dione]?
**A.** estrogenic, androgenic, anti-estrogenic, and anti-androgenic activities [5]: lack; serum cortisol versus control group [6]: significantly higher levels of serum cortisol

**Q.** For `CC(=O)OCC(=O)[C@@]1(OC(C)=O)CCC2C3CCC4=CC(=NO)CCC4=C3C(c3ccc(N(C)C)cc3)C[C@@]21C` (stereo partly drawn) [CDB-4206, 3-hydroxyamino-2′-acetoxy-17α-acetoxy-11β-(4 N,N-dimethylaminophenyl)-19-norpregna-4,9-diene-3,20-dione], which rbPR/rbGR [1] is on record?
**A.** The rbPR/rbGR was 1.44.

**Q.** And the “rabbit Biol. Act.” value (rabbit uterus)?
**A.** Its value is 0.68.
